According to paper PMC4601051, “Discovery of Indoline-2-carboxamide Derivatives as a New Class of Brain-Penetrant Inhibitors of Trypanosoma brucei” (Journal of Medicinal Chemistry, 2015):
“And” between values parts separate entries of the source, which are not always exact repeats. Equal values may be shown once. Read-outs that look alike come from different tables or passages of the source.

Key:
[1] = test system: bloodstream form T. brucei brucei; assay: T. b. brucei whole cell parasite (trypanosome growth) assay; type: cell-based, Trypanosoma brucei brucei; settings: for EC50: Trypanosoma brucei, mean of two or more determinations, 69 h + 4 h resazurin, read-out: T. b. brucei EC50
Experimental: This was conducted as previously described.[27] Cell culture plates were stamped with 1 μL of an appropriate stock concentration of test compound, followed by addition of 200 μL of trypanosome culture (HMI9-T, 10% FCS) to each well at a density of 2000 cells per well (except column 12 receiving media only). […] Potency was carried out using 10-point dose–response curves.

[2] = Microsomal intrinsic clearance (Clint), mouse; type: in vitro ADME; settings: mouse liver microsomes, 0.5 μM compound
Experimental: (§1) Each test compound (0.5 μM) was incubated with pooled female CDI mouse liver microsomes, pooled male Sprague–Dawley rat microsomes, or pooled mixed gender human liver microsomes (Tebu-Bio, UK; 0.5 mg/mL 50 mM potassium phosphate buffer, pH 7.4) and the reaction started with addition of excess NADPH (8 mg/mL, 50 mM potassium phosphate buffer, pH 7.4). Immediately, at time zero, then at 3, 6, 9, 15, and 30 min, an aliquot (50 μL) of the incubation mixture was removed and mixed with acetonitrile (100 μL) to stop the reaction. Internal standard was added to all samples, and the samples were centrifuged at 1825g for 10 min to sediment precipitated protein. The plates were then sealed prior to UPLC/MS/MS analysis using a Quattro Premier XE (Waters Corporation, USA).
(§2) XLfit (IDBS, UK) was used to calculate the exponential decay and consequently the rate constant (k) from the ratio of peak area of test compound to internal standard at each time point.

[3] = Microsomal intrinsic clearance (Clint), rat; type: in vitro ADME; settings: rat liver microsomes, 0.5 μM compound
Experimental: as §1, §2

[4] = Microsomal intrinsic clearance (Clint), human; type: in vitro ADME; settings: human liver microsomes, 0.5 μM compound
Experimental: as §1, §2

[5] = Aqueous kinetic solubility by laser nephelometry; type: physicochemical; settings: aqueous medium, Table 7
Experimental: (§3) The software package StarDrop by Optibrium was used to calculate physicochemical parameters including log P, molecular weight, and polar surface area (PSA). The aqueous kinetic solubility of the compounds was measured using laser nephelometry as previously described.[40] The plasma protein binding of the compounds was determined by the equilibrium dialysis method.[12]

[6] = Plasma protein binding by equilibrium dialysis, mouse; type: in vitro ADME; settings: read-out: plasma protein binding, Fu (fraction unbound)
Experimental: as §3

[7] = Brain tissue binding by equilibrium dialysis; type: in vitro ADME; settings: Sprague-Dawley, brain homogenate; rat (male SD rat); read-out: brain tissue binding (rat), Fu
Experimental: In brief, a 96-well equilibrium dialysis apparatus was used to determine the free fraction in the brain for the test compound (HT Dialysis LLC, Gales Ferry, CT). Membranes (12–14 kDa A cutoff) were conditioned in deionized water for 60 min, followed by conditioning in 80:20 deionized water:ethanol for 20 min and then rinsed in artificial cerebrospinal fluid (CSF) before use. Mouse brain was removed from the freezer and allowed to thaw on the day of experiment. […] Diluted brain homogenate was spiked with the test compound (10 ug/g), and 150 μL aliquots (n = 6 replicate determinations) loaded into the 96-well equilibrium dialysis plate. Dialysis vs artificial CSF (150 μL) was carried out for 5 h in a temperature controlled incubator at ca. 37 °C (Stuart scientific Ltd., UK) using an orbital microplate shaker at 125 rpm (Stuart scientific Ltd., UK). […] All samples were analyzed by means of UPLC/MS/MS on a Quattro Premier XE mass spectrometer (Waters Corporation, USA). The unbound fraction was determined as the ratio of the peak area in artificial CSF to that in brain, with correction for dilution factor according to eq 1.[42] […] 1 where D = dilution factor in brain homogenate and Fu,apparent is the measured free fraction of diluted brain homogenate.

[8] = In vivo mouse pharmacokinetics; settings: for Cmax / Tmax / half-life / AUC(0-t) at 8 h / AUC(0-t): female, mouse, in vivo, 10 mg/kg, NMRI mice; for AUC(0-t) at 8 h: read-out: AUC0–8; for AUC(0-t): read-out: AUC0–8 (converted)
Experimental: Each compound was dosed as a bolus solution intraperitoneally at 10 mg free base/kg (dose volume, 10 mL/kg; dose vehicles used, 10% DMSO; 40% PEG400; 50% Milli-Q water or 5% DMSO; 40% PEG400; 55% saline) to female HRN (1 only) or NMRI mice (n = 3) or dosed orally by gavage as a solution at 10 mg free base/kg (dose volume, 10 mL/kg; dose vehicle, 10% DMSO; 40% PEG400; 50% Milli-Q water) to female NMRI mice (n = 3). Female NMRI mice were chosen, as these represent the sex and strain used for the stage 1 and stage 2 HAT efficacy models. Blood samples were taken from each mouse at 5 (IP only), 15, and 30 min, 1, 2, 4, 6, and 8 h post dose, mixed with two volumes of distilled water, and stored frozen until UPLC/MS/MS analysis. Pharmacokinetic parameters were derived from noncompartmental analysis of the blood concentration time curve using PK solutions software v 2.0 (Summit Research Services, USA).

[9] = Mouse brain penetration (brain:blood ratio); settings: in vivo, dosed intravenously at 0.5 or 1 mg/kg, levels measured after 5 min, female NMRI mice, read-out: B:B (brain to blood ratio)
Experimental: Each compound was dosed as a bolus solution intravenously at 0.5 or 1 mg free base/kg (dose volume, 5 mL/kg; dose vehicle, 10% DMSO; 40% PEG400; 50% Milli-Q water) to female NMRI mice (n = 6). At 5 and 30 min following intravenous bolus injection of test compound, mice (n = 3/time point) were placed under terminal anesthesia with isofluorane. A blood sample was taken by cardiac puncture and mixed with two volumes of distilled water, the mice decapitated, and the brain removed. Diluted blood and brains were stored frozen until preparation and analysis by UPLC/MS/MS. For each mouse at each time point, the concentration in brain (ng/g) was divided by the concentration in blood (ng/mL) to give a brain:blood ratio. The mean value obtained was quoted.

in vitro = settings: human, MRC-5 fibroblasts
Experimental: Proliferation assays using bloodstream form T. brucei brucei and human MRC-5 fibroblasts were conducted using a modification of the cell viability assay as previously reported.[27],[39]
MRC-5 cells (2000 cells per well) were seeded in 200 μL of DMEM, 10% FCS, and allowed to adhere overnight. One microliter of test compound was added to each well on the day of assay initiation.
The final DMSO level was 0.5% in all cases.

[10] = test system: panel of receptors, including dopamine, serotonin, histamine, and muscarinic receptors; assay: NIMH Psychoactive Drug Screening Program (PDSP) receptor panel; type: binding; settings: significant inhibition is considered > 50%
From the text: However, the observed toxicity prevents further progression of the compounds. To try and identify a possible driver for toxicity, that may then offer an opportunity to design out this unwanted effect, the key compounds were screened against a panel of receptors at the NIMH Psychoactive Drug Screening Program (PDSP).[36],[37] No significant activity against a large panel of receptors, including dopamine, serotonin, histamine, and muscarinic receptors (see Supporting Information) was observed.
S2: Details of receptors screened at the NIMH Psychoactive Drug Screening Program […]
receptors screened. Significant inhibition is considered > 50%. In cases where negative inhibition (-) is seen, this represents a stimulation of binding. The receptors screened were 5- […]
HT7, Alpha1A, Alpha1B, Alpha1D, Alpha2A, Alpha2B, Alpha2C, Beta1, Beta2, Beta3, BZP rat Brain site, D1, D2, D3, D4, D5, DAT, DOR, GABBA, H1, H2, H3, KOR, M1, M2, M3, M4, M5, MOR, NET, PBR, SERT, Sigma1 and Sigma2

SMILES: CNC(=O)C1Cc2cc(F)ccc2N1C(=O)COc1ccc(F)cc1 (stereo not shown) [Compound 55, 5-fluoro-1-(2-(4-fluorophenoxy)acetyl)-N-methylindoline-2-carboxamide]
- Hill slope ([1]; T. brucei EC50 curve): 4.4
- EC50 [1]: 0.08 µM
- mouse microsomal intrinsic clearance [2]: 1.3 mL min^–1 g^–1
- microsomal intrinsic clearance, rat [3]: 2.1 mL min^–1 g^–1
- microsomal intrinsic clearance, human [4]: 0.5 mL min^–1 g^–1 and < 0.5 mL min^–1 g^–1
- solubility [5]: > 0.1 mg/mL
- fraction unbound [6]: 0.33
- fraction unbound at 5 h, 10 ug/g [7]: 0.29
- higher AUC compared to 1 ([8]; IP, female NMRI mice): 1.5–6.5 fold
- Cmax ([8]; IP): 2900 ng/mL and 8.4 µM
- Tmax ([8]; IP): 60 min
- half-life ([8]; IP): 72 min
- AUC(0-t) at 8 h ([8]; IP): 34 µM·h
- AUC(0-t) ([8]; IP): 11.8 µg·h/mL
- Cmax ([8]; PO): 1500 ng/mL and 4.3 µM
- Tmax ([8]; PO): 30 min
- half-life ([8]; PO): 120 min
- AUC(0-t) at 8 h ([8]; PO): 10 µM·h
- AUC(0-t) ([8]; PO): 3.5 µg·h/mL
- Kp at 5 min [9]: 1.4
- EC50 at 69 h (in vitro): > 50 µM

SMILES: CNC(=O)C1Cc2ccccc2N1C(=O)COc1ccc(F)cc1 (stereo not shown) [Compound 35, 1-(2-(4-fluorophenoxy)acetyl)-N-methylindoline-2-carboxamide]
- EC50 [1]: 0.02 µM
- mouse microsomal intrinsic clearance [2]: 1.2 mL min^–1 g^–1 and 1.2/ND mL min^–1 g^–1
- fraction unbound [6]: 0.42
- Cmax ([8]; IP): 910 ng/mL and 2.8 µM
- Tmax ([8]; IP): 15 min
- half-life ([8]; IP): 66 min
- AUC(0-t) at 8 h ([8]; IP): 5.6 µM·h
- AUC(0-t) ([8]; IP): 1.83 µg·h/mL
- Cmax ([8]; PO): 180 ng/mL and 550 nM
- Tmax ([8]; PO): 15 min
- half-life ([8]; PO): 42 min
- AUC(0-t) at 8 h ([8]; PO): 0.8 µM·h
- AUC(0-t) ([8]; PO): 0.25 µg·h/mL
- Kp at 5 min [9]: 1.5
- inhibition against receptors screened [10]: did not show significant inhibitor
- EC50 at 69 h (in vitro): > 50 µM
